The values below are quoted from earlier work in patent publication US20230089090A1, “Composition for Treating Viral Infections” (priority 2020, published 2023).

For orientation: Ki means the dissociation constant of the complex between target and ligand, obtained from inhibition or displacement.

The conditions of data set [1]: both flavonols administered simultaneously.
A further data set deals with human furin (Homo sapiens, UniProt P09958).
For data set [2] the following is noted: in vivo, 10 mg/kg.
Data set [3] relates to androgen receptor (AR)-positive C4-2 cells. The note with it: single compounds, read-out: half minimal inhibitory concentration (IC50).
The subject of data set [4] is HIV-1 infected lymphocytes. Particulars: similar to DRB and cell control.
The conditions of data set [5]: significant amount excreted over a 24-h period.

human furin, sequence (P09958 108-794): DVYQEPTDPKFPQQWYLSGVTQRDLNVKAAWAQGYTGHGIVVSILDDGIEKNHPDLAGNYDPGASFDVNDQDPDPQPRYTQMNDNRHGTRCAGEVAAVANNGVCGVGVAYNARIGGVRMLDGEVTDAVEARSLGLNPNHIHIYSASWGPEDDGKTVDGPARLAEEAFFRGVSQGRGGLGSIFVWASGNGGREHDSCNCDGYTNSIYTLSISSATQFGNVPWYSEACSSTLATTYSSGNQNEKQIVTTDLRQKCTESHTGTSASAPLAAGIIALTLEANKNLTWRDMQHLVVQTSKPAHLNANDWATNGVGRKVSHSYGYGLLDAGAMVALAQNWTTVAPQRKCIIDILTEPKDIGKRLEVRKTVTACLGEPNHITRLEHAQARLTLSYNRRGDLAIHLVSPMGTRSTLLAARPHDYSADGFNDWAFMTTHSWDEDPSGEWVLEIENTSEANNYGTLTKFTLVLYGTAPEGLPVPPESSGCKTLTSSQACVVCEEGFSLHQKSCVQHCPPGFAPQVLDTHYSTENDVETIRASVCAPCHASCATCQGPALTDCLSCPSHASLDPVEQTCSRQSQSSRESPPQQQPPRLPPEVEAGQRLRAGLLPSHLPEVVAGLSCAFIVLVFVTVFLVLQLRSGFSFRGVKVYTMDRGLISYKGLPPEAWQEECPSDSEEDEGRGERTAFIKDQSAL

On to `O=c1c(O)c(-c2ccc(O)cc2)oc2cc(O)cc(O)c12` [kaempferol, 3,4′,5,7-tetrahydroxyflavone], for which the “effect on efflux of quercetin” value in data set [1] is given as “blocked the efflux of quercetin”.
`O=c1cc(-c2ccc(O)c(O)c2)oc2cc(O)cc(O)c12` [luteolin, 2-(3,4-dihydroxyphenyl)-5,7-dihydroxy-4-chromenone]: the “manner of inhibition of the enzyme activity” value at human furin was “uncompetitive”. The Ki on human furin (uncompetitive inhibition) was 58.6 µM. In addition, in data set [2], the adverse effects entry is reported as “Major adverse effects had not been observed”. Also, the IC50 in data set [3] was 114 µM. For the same molecule, in data set [4], the cell aggregation/syncytia result is “inhibition in cell aggregation/syncytia”. Besides, the dengue virus replication result with dengue virus (through inhibition of the proprotein convertase furin) is reported as “restricts dengue virus replication”. Also, the “prM cleavage in virus particles” value in the data set on dengue virus (virus particles from luteolin-treated cells) is “not cleaved efficiently”.
As to `O=c1c(O)c(-c2ccc(O)c(O)c2)oc2cc(O)cc(O)c12` [quercetin, 2-(3,4-dihydroxyphenyl)-3,5,7-trihydroxy-4H-chromen-4-one], the “clearance and half-life in the blood” value in data set [5] was “rapid clearance and a short half-life”.
